The values below are quoted from earlier work in patent US20040220167A1, “Methods of treating neuralgic pain” (priority 2003, published 2004).

For this data set the following is noted: in vivo.

Take Verteporfin: the “fraction cleared via the kidneys” value is given as “Less than 1%”; the mean half-life is 5 to 6 h; the primary clearance route result was “primarily cleared through bile and feces”.
